Results from patent US12662491B2 (Redona Therapeutics, Inc., priority 2020, dated 2026).

Target: T1, Zcchc11 enzyme (Homo sapiens, UniProt Q5TAX3)
T1 construct: made in house; host or cells: HEK293 cells (Zcchc11); E. coli Rosetta II (LIN28A)
T1 sequence (Q5TAX3 212-1420): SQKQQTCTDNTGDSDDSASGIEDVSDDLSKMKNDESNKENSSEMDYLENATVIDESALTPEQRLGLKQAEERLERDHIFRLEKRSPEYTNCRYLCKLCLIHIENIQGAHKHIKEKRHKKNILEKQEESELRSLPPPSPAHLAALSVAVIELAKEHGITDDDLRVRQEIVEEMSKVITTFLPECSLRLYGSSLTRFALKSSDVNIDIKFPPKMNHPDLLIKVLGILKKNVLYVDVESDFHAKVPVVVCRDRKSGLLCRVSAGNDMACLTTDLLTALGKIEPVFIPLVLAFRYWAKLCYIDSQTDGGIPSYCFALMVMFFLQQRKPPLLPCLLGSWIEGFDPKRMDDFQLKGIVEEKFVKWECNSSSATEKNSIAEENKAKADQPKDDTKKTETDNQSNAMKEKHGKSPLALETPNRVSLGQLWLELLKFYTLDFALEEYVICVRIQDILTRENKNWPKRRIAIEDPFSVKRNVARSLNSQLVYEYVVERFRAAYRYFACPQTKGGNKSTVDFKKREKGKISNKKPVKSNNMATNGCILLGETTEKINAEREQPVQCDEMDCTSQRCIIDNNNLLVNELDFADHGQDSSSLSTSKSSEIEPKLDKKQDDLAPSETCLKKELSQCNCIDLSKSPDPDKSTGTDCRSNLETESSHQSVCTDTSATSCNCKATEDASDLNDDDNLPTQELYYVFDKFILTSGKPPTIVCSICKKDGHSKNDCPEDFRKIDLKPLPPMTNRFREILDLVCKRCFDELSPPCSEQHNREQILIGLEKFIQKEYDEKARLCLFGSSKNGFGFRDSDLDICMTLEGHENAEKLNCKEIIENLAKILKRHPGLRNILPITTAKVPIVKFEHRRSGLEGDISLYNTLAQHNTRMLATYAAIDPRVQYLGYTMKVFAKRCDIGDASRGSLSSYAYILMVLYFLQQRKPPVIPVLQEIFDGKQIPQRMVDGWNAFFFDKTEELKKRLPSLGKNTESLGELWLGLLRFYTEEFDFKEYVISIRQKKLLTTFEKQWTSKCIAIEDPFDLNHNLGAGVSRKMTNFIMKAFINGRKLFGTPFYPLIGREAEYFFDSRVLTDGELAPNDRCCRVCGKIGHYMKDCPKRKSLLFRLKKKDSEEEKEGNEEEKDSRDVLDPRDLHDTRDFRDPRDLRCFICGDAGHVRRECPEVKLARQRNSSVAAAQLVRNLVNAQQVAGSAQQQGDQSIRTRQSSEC
Assay: TUTase assay (Zcchc11 assay, Lin28a-dependent polyuridylation of pre-let-7)
Type: biochemical
Details: Lin28a-dependent Zcchc11 (Z11) TUTase activity; read-out: Potency Lin28a-dep Z11 IC50
In short: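 Potency is measured as inhibition of LIN28A-driven U-tail addition to 2 nM pre-let-7 by 0.2 nM HEK293-derived Zcchc11 fragment with 5 uM UTP at room temperature. Tail growth appears as fluorescein quenching by an annealing rhodamine-A20 probe.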

IC50 [nM] | SMILES
1000 to 10000 | O=C(O)c1cn(-c2cc(F)ccc2F)c2cc(N3CCC[C@@H]3COc3ccccn3)c(F)cc2c1=O [Compound 143, (R)-1-(2,5-difluorophenyl)-6-fluoro-4-oxo-7-(2-((pyridin-2-yloxy)methyl)pyrrolidin-1-yl)-1,4-dihydro-quinoline-3-carboxylic acid]
1000 to 10000 | O=C(O)c1cn(-c2cc(F)cc(F)c2)c2cc(N3CCC[C@@H]3COc3ccccn3)c(F)cc2c1=O [Compound 144, (R)-1-(3,5-difluorophenyl)-6-fluoro-4-oxo-7-(2-((pyridin-2-yloxy)methyl)pyrrolidin-1-yl)-1,4-dihydro-quinoline-3-carboxylic acid]
≤ 1000 | O=C(O)c1cn(-c2ccc(Cl)cc2)c2cc(N3CCC[C@@H]3COc3ccccn3)c(F)cc2c1=O [Compound 145, (R)-1-(4-chlorophenyl)-6-fluoro-4-oxo-7-(2-((pyridin-2-yloxy)methyl)pyrrolidin-1-yl)-1,4-dihydro-quinoline-3-carboxylic acid]
≤ 1000 | COc1cccc(-n2cc(C(=O)O)c(=O)c3cc(F)c(N4CCC[C@@H]4COc4ccccn4)cc32)c1 [Compound 146, (R)-6-fluoro-1-(3-methoxy-phenyl)-4-oxo-7-(2-((pyridin-2-yloxy)methyl)pyrrolidin-1-yl)-1,4-dihydro-quinoline-3-carboxylic acid]
≤ 1000 | COc1ccc(-n2cc(C(=O)O)c(=O)c3cc(F)c(N4CCC[C@@H]4COc4ccccn4)cc32)cc1 [Compound 147, (R)-6-fluoro-1-(4-methoxy-phenyl)-4-oxo-7-(2-((pyridin-2-yloxy)methyl)pyrrolidin-1-yl)-1,4-dihydro-quinoline-3-carboxylic acid]
≤ 1000 | CS(=O)(=O)Nc1ccc(-n2cc(C(=O)O)c(=O)c3cc(F)c(N4CCC[C@@H]4COc4ccccn4)cc32)cc1 [Compound 148, (R)-6-fluoro-1-(4-(methyl-sulfonamido)phenyl)-4-oxo-7-(2-((pyridin-2-yloxy)methyl)pyrrolidin-1-yl)-1,4-dihydro-quinoline-3-carboxylic acid]
1000 to 10000 | O=C(O)c1cn(-c2ccc(F)c(F)c2)c2cc(N3CCC[C@@H]3COc3ccccn3)c(F)cc2c1=O [Compound 149, (R)-1-(3,4-difluorophenyl)-6-fluoro-4-oxo-7-(2-((pyridin-2-yloxy)methyl)pyrrolidin-1-yl)-1,4-dihydro-quinoline-3-carboxylic acid]
1000 to 10000 | O=C(O)c1cn(-c2ccc(F)cn2)c2cc(N3CCC[C@@H]3COc3ccccn3)c(F)cc2c1=O [Compound 150, (R)-6-fluoro-1-(5-fluoropyridin-2-yl)-4-oxo-7-(2-((pyridin-2-yloxy)methyl)pyrrolidin-1-yl)-1,4-dihydro-quinoline-3-carboxylic acid]
≤ 1000 | O=C(O)c1cn(-c2ccc(F)cc2)c2cc(N3CCC[C@@H]3COc3ccccn3)c(F)cc2c1=O [Compound 151, (R)-6-fluoro-1-(4-fluorophenyl)-4-oxo-7-(2-((pyridin-2-yloxy)methyl)pyrrolidin-1-yl)-1,4-dihydro-quinoline-3-carboxylic acid]
1000 to 10000 | O=C(O)c1cn(-c2ccc(O)cc2Cl)c2cc(N3CCC[C@@H]3COc3ccccn3)c(F)cc2c1=O [Compound 152, (R)-1-(2-chloro-4-hydroxy-phenyl)-6-fluoro-4-oxo-7-(2-((pyridin-2-yloxy)methyl)pyrrolidin-1-yl)-1,4-dihydro-quinoline-3-carboxylic acid]
1000 to 10000 | O=C(O)c1cn(-c2cc(F)ccc2Cl)c2cc(N3CCC[C@@H]3COc3ccccn3)c(F)cc2c1=O [Compound 153, (R)-1-(2-chloro-5-fluorophenyl)-6-fluoro-4-oxo-7-(2-((pyridin-2-yloxy)methyl)pyrrolidin-1-yl)-1,4-dihydro-quinoline-3-carboxylic acid]
1000 to 10000 | Cc1cccc(F)c1-n1cc(C(=O)O)c(=O)c2cc(F)c(N3CCC[C@@H]3COc3ccccn3)cc21 [Compound 154, (R)-6-fluoro-1-(2-fluoro-6-methylphenyl)-4-oxo-7-(2-((pyridin-2-yloxy)methyl)pyrrolidin-1-yl)-1,4-dihydro-quinoline-3-carboxylic acid]
